Experimental data reported in patent publication US20260265233A1, “BENZOTHIOPHENE DERIVATIVES AS RXFP1 AGONISTS” (BRISTOL-MYERS SQUIBB COMPANY, priority 2021, published 2026).

Molecular target: T1, human RXFP1 (Homo sapiens, UniProt Q9HBX9)
T1 construct: expressed in transfected cells
T1 sequence (Q9HBX9 1-757): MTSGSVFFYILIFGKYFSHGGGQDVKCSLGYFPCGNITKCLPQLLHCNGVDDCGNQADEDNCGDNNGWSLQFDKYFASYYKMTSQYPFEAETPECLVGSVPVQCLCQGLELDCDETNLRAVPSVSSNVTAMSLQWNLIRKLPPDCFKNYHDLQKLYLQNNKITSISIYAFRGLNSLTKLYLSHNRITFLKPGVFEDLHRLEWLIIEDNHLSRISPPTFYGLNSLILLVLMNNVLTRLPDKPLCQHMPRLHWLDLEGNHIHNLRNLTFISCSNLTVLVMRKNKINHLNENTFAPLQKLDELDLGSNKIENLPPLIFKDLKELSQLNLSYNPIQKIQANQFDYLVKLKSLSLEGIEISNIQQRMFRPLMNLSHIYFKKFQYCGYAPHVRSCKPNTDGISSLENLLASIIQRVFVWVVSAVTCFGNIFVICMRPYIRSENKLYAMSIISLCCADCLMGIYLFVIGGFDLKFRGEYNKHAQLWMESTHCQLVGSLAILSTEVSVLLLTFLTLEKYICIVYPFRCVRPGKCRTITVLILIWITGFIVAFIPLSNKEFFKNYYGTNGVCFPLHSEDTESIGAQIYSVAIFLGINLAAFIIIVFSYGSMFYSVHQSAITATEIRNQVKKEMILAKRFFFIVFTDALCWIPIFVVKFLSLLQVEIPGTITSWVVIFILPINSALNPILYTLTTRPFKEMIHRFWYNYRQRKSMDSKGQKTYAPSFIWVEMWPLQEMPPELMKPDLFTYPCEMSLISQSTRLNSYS
Assay: hRXFP1 HEK293 cAMP assay (HTRF)
Assay type: cell-based
Conditions: HEK293 cells stably expressing human RXFP1; 30 min at rt; intracellular cAMP by HTRF
In short: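 Agonism is measured as cAMP by HTRF, quantified from a standard curve via the 665/590 nm ratio and fitted with a four-parameter logistic equation. Compounds (0.010 nM to 50 μM final, 2% DMSO) were applied for 30 min at rt to human RXFP1-expressing HEK293 cells in assay buffer containing 0.5 mM IBMX.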

EC50 [µM] | Compound
0.277 | COc1ccc(C2CCCN(C(=O)C(C)(C)O)C2)cc1C(=O)Nc1c(C(=O)Nc2ccc(F)c(C(F)(F)F)c2)sc2cc(C(F)(F)F)ccc12 (stereo not shown) [Example 104, N-[4-fluoro-3-(trifluoromethyl)phenyl]-3-{5-[1-(2-hydroxy-2-methylpropanoyl)piperidin-3-yl]-2-methoxy-benzamido}-6-(trifluoromethyl)-1-benzothiophene-2-carboxamide]
0.677 | COc1ccc(-c2cc(CN)ccc2F)cc1C(=O)Nc1c(C(=O)Nc2ccc(F)c(C(F)(F)F)c2)sc2cc(C(F)(F)F)ccc12 [Example 16, 3-(5′-(aminomethyl)-2′-fluoro-4-methoxy-[1,1′-biphenyl]-3-carboxamido)-N-(4-fluoro-3-(trifluoromethyl)phenyl)-6-(trifluoromethyl)benzo[b]thiophene-2-carboxamide]
0.098 | COc1ccc(CNC(c2ccc(F)c(-c3ccc(OC)c(C(=O)Nc4c(C(=O)Nc5ccc(F)c(C(F)(F)F)c5)sc5cc(C(F)(F)F)ccc45)c3)c2)C(F)(F)F)cc1OC (single isomer, unassigned) [Example 115, 3-(5′-(1-((3,4-dimethoxybenzyl)amino)-2,2,2-trifluoroethyl)-2′-fluoro-4-methoxy-[1,1′-biphenyl]-3-carboxamido)-N-(4-fluoro-3-(trifluoromethyl)phenyl)-6-(trifluoromethyl) benzo[b] thiophene-2-carboxamide]
1.05 | COc1ccc(C2=NOC3CN(C(=O)CO)CC23)cc1C(=O)Nc1c(C(=O)Nc2ccc(F)c(C(F)(F)F)c2)sc2cc(C(F)(F)F)ccc12 (single isomer, unassigned) [Example 243, N-(4-fluoro-3-(trifluoromethyl)phenyl)-3-(5-(5-(2-hydroxyacetyl)-3a,5,6,6a-tetrahydro-4H-pyrrolo[3,4-d]isoxazol-3-yl)-2-methoxy-benzamido)-6-(trifluoromethyl) benzo[b] thiophene-2-carboxamide]
0.509 | COc1ccc(C2CC3(C2)CN(C(=O)CC(C)(C)O)C3)cc1C(=O)Nc1c(C(=O)Nc2ccc(F)c(C(F)(F)F)c2)sc2cc(C(F)(F)F)ccc12 [Example 109, N-(4-fluoro-3-(trifluoromethyl)phenyl)-3-(5-(2-(3-hydroxy-3-methylbutanoyl)-2-azaspiro[3.3]heptan-6-yl)-2-methoxy-benzamido)-6-(trifluoromethyl) benzo[b] thiophene-2-carboxamide]
1.1 | COc1ccc(C2CC2C(=O)NCC(C)(C)O)cc1C(=O)Nc1c(C(=O)Nc2ccc(F)c(C(F)(F)F)c2)sc2cc(C(F)(F)F)ccc12 (stereo not shown) [Example 170, N-[4-fluoro-3-(trifluoromethyl)phenyl]-3-(5-{2-[(2-hydroxy-2-methylpropyl)carbamoyl]cyclopropyl}-2-methoxy-benzamido)-6-(trifluoromethyl)-1-benzothiophene-2-carboxamide]
2.24 | COc1ccc(C2CCN(S(C)(=O)=O)C2)cc1C(=O)Nc1c(C(=O)Nc2ccc(F)c(C(F)(F)F)c2)sc2cc(C(F)(F)F)ccc12 (stereo not shown) [Example 148, N-(4-fluoro-3-(trifluoromethyl)phenyl)-3-(2-methoxy-5-(1-(methylsulfonyl)pyrrolidin-3-yl)benzamido)-6-(trifluoromethyl) benzo[b] thiophene-2-carboxamide]
0.0951 | COc1ccc(C2=NC(C(=O)N3CC(C(C)(C)O)C3)CO2)cc1C(=O)Nc1c(C(=O)Nc2ccc(F)c(C(F)(F)F)c2)sc2cc(C(F)(F)F)ccc12 (stereo not shown) [Example 281, N-[4-fluoro-3-(trifluoromethyl)phenyl]-3-(5-{4-[3-(2-hydroxypropan-2-yl)azetidine-1-carbonyl]-4,5-dihydro-1,3-oxazol-2-yl}-2-methoxy-benzamido)-6-(trifluoromethyl)-1-benzothiophene-2-carboxamide]
0.245 | COC(=O)C(=O)N1CCCC(c2ccc(OC)c(C(=O)Nc3c(C(=O)Nc4ccc(F)c(C(F)(F)F)c4)sc4cc(C(F)(F)F)ccc34)c2)C1 (stereo not shown) [Example 94, methyl 2-(3-(3-((2-((4-fluoro-3-(trifluoromethyl)phenyl)carbamoyl)-6-(trifluoromethyl)benzo[b]thiophen-3-yl)carbamoyl)-4-methoxyphenyl)piperidin-1-yl)-2-oxoacetate]
1.34 | COc1ccc(C(=O)N2CC3(C2)CS(=O)(=O)C3)cc1C(=O)Nc1c(C(=O)Nc2ccc(F)c(C(F)(F)F)c2)sc2cc(C3CC3)ncc12 [Example 29, 6-cyclopropyl-3-(5-(2,2-dioxido-2-thia-6-azaspiro [3.3]heptane-6-carbonyl)-2-methoxybenzamido)-N-(4-fluoro-3-(trifluoromethyl)phenyl) thieno [3,2-c]pyridine-2-carboxamide]
0.228 | COc1ccc(-c2cccc(C(C)(C)O)c2)cc1C(=O)Nc1c(C(=O)Nc2ccc(F)c(C(F)(F)F)c2)sc2cc(C(F)(F)F)ccc12 [Example 120, N-(4-fluoro-3-(trifluoromethyl)phenyl)-3-(3′-(2-hydroxypropan-2-yl)-4-methoxy-[1,1′-biphenyl]-3-carboxamido)-6-(trifluoromethyl) benzo[b] thiophene-2-carboxamide]
0.897 | COc1ccc(N2CCC(NCCO)C2)cc1C(=O)Nc1c(C(=O)Nc2ccc(F)c(C(F)(F)F)c2)sc2cc(C(F)(F)F)ccc12 (stereo not shown) [Example 66, N-(4-fluoro-3-(trifluoromethyl)phenyl)-3-(5-(3-((2-hydroxyethyl)amino)pyrrolidin-1-yl)-2-methoxy-benzamido)-6-(trifluoromethyl) benzo[b] thiophene-2-carboxamide]
2.3 | COc1ccc(C2CC2C(C)(C)O)cc1C(=O)Nc1c(C(=O)Nc2ccc(F)c(C(F)(F)F)c2)sc2cc(C(F)(F)F)ccc12 (single isomer, unassigned) [Example 160, N-[4-fluoro-3-(trifluoromethyl)phenyl]-3-{5-[2-(2-hydroxypropan-2-yl)cyclopropyl]-2-methoxy-benzamido}-6-(trifluoromethyl)-1-benzothiophene-2-carboxamide]
1.43 | COc1ccc(N2CCCC(C(C)(C)O)C2)cc1C(=O)Nc1c(C(=O)Nc2ccc(F)c(C(F)(F)F)c2)sc2cc(C(F)(F)F)ccc12 (single isomer, unassigned) [Example 108, N-(4-fluoro-3-(trifluoromethyl)phenyl)-3-(5-(3-(2-hydroxypropan-2-yl)piperidin-1-yl)-2-methoxy-benzamido)-6-(trifluoromethyl) benzo[b] thiophene-2-carboxamide]
0.311 | COc1ccc(-c2cc(CNC(=O)C3CCC3)ccc2F)cc1C(=O)Nc1c(C(=O)Nc2ccc(F)c(C(F)(F)F)c2)sc2cc(C(F)(F)F)ccc12 [Example 18, 3-(5′-(cyclobutanecarboxamidomethyl)-2′-fluoro-4-methoxy-[1,1′-biphenyl]-3-carboxamido)-N-(4-fluoro-3-(trifluoromethyl)phenyl)-6-(trifluoromethyl)benzo[b]thiophene-2-carboxamide]
0.794 | COc1ccc(C2CCCC(C)(O)C2)cc1C(=O)Nc1c(C(=O)Nc2ccc(F)c(C(F)(F)F)c2)sc2cc(C(F)(F)F)ccc12 (single isomer, unassigned) [Example 35, N-(4-fluoro-3-(trifluoromethyl)phenyl)-3-(5-(3-hydroxy-3-methylcyclohexyl)-2-methoxybenzamido)-6-(trifluoromethyl)benzo[b]thiophene-2-carboxamide]
1.4 | COc1ccc(N2CCCC(C(=O)NCCO)C2)cc1C(=O)Nc1c(C(=O)Nc2ccc(F)c(C(F)(F)F)c2)sc2cc(C(F)(F)F)ccc12 (single isomer, unassigned) [Example 230, 1-(3-((2-((4-fluoro-3-(trifluoromethyl)phenyl)carbamoyl)-6-(trifluoromethyl)benzo[b]thiophen-3-yl)carbamoyl)-4-methoxyphenyl)-N-(2-hydroxyethyl) piperidine-3-carboxamide]
0.144 | COc1cc(F)c(C#CCO)cc1C(=O)Nc1c(C(=O)Nc2ccc(F)c(C(F)(F)F)c2)sc2cc(C(F)(F)F)ccc12 [Example 110, N-(4-fluoro-3-(trifluoromethyl)phenyl)-3-(4-fluoro-5-(3-hydroxyprop-1-yn-1-yl)-2-methoxy-benzamido)-6-(trifluoromethyl) benzo[b] thiophene-2-carboxamide]
1.54 | COc1ccc(C2CCCN(CC(O)CO)C2)cc1C(=O)Nc1c(C(=O)Nc2ccc(F)c(C(F)(F)F)c2)sc2cc(C(F)(F)F)ccc12 (stereo not shown) [Example 88, 3-(5-(1-(2,3-dihydroxypropyl)piperidin-3-yl)-2-methoxy-benzamido)-N-(4-fluoro-3-(trifluoromethyl)phenyl)-6-(trifluoromethyl) benzo[b] thiophene-2-carboxamide]
